Reference: ChEMBL document CHEMBL1201862, “PubChem BioAssay data set” (2004)
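96-well plates; 48 h exposure; 5 concentrations. Endpoints by linear interpolation between flanking doses. Not reached: highest tested concentration assigned. GI50 marks 50% less growth.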 Activity calls are given as the source filed them. Rule as the data show it: active = GI50 up to about 1.1 µM and inactive = higher.

Legend:
Test in all cases: NCI tumour cell line growth inhibition, 48 h
NCI-H23 = tested on: NCI-H23
LOX IMVI = tested on: LOX IMVI
SK-MEL-2 = tested on: SK-MEL-2
HCT-116 = tested on: HCT-116
Malme-3M = tested on: Malme-3M
SF-268 = tested on: SF-268
NCI-H522 = tested on: NCI-H522
TK-10 = tested on: TK-10
UACC-62 = tested on: UACC-62
EKVX = tested on: EKVX
CCRF-CEM = tested on: CCRF-CEM
IGROV-1 = tested on: IGROV-1
OVCAR-8 = tested on: OVCAR-8
CAKI-1 = tested on: CAKI-1
OVCAR-3 = tested on: OVCAR-3
HOP-62 = tested on: HOP-62
HCC 2998 = tested on: HCC 2998

SMILES	GI50 (NCI-H23)	GI50 (LOX IMVI)	GI50 (SK-MEL-2)	GI50 (HCT-116)	GI50 (Malme-3M)	GI50 (SF-268)	GI50 (NCI-H522)	GI50 (TK-10)	GI50 (UACC-62)	GI50 (EKVX)	GI50 (CCRF-CEM)	GI50 (IGROV-1)	GI50 (OVCAR-8)	GI50 (CAKI-1)	GI50 (OVCAR-3)	GI50 (HOP-62)	GI50 (HCC 2998)
O=C(Nc1ccc(Cl)cc1)C1C(=O)C(=O)N(c2ccc(Cl)cc2)C1=O (configuration not stated)	> 100 µM (inactive)	> 100 µM (inactive)	38.6 µM (inactive)	53.7 µM (inactive)	> 100 µM (inactive)	> 100 µM (inactive)	> 100 µM (inactive)	> 100 µM (inactive)	> 100 µM (inactive)	> 100 µM (inactive)	73.6 µM (inactive)	> 100 µM (inactive)	> 100 µM (inactive)	> 100 µM (inactive)	> 100 µM (inactive)		
CC12Oc3ccc4ccccc4c3CC1Cc1c(ccc3ccccc13)O2 (configuration not stated)	> 100 µM (inactive)	56.2 µM (inactive)	48 µM (inactive)	> 100 µM (inactive)	3.44 µM (inactive)	> 100 µM (inactive)	70 µM (inactive)	46.2 µM (inactive)		> 100 µM (inactive)			49.7 µM (inactive)	48 µM (inactive)		53 µM (inactive)	> 100 µM (inactive)
Cc1ccc(Cc2c(=O)[nH]nc3ccccc23)cc1	> 100 µM (inactive)	> 100 µM (inactive)	> 100 µM (inactive)	> 100 µM (inactive)	> 100 µM (inactive)	> 100 µM (inactive)		> 100 µM (inactive)	> 100 µM (inactive)	> 100 µM (inactive)	> 100 µM (inactive)	> 100 µM (inactive)	> 100 µM (inactive)	> 100 µM (inactive)	> 100 µM (inactive)	> 100 µM (inactive)	> 100 µM (inactive)
Cc1ccccc1C1SCc2nc3ccccc3n21 (configuration not stated)	12.8 µM (inactive)		> 100 µM (inactive)	4.72 µM (inactive)	44.9 µM (inactive)	> 100 µM (inactive)	21.8 µM (inactive)	> 100 µM (inactive)	7.28 µM (inactive)	> 100 µM (inactive)	> 100 µM (inactive)	> 100 µM (inactive)	> 100 µM (inactive)	> 100 µM (inactive)	> 100 µM (inactive)		> 100 µM (inactive)
CCCCC(C(=O)C(=O)Nc1ccc(C)cc1C)C(=O)C(C)C (configuration not stated)	> 100 µM (inactive)	> 100 µM (inactive)	> 100 µM (inactive)	> 100 µM (inactive)	> 100 µM (inactive)	> 100 µM (inactive)		> 100 µM (inactive)	> 100 µM (inactive)	> 100 µM (inactive)		> 100 µM (inactive)	> 100 µM (inactive)	> 100 µM (inactive)	> 100 µM (inactive)	> 100 µM (inactive)	> 100 µM (inactive)
Cc1cc(=O)oc2cc3c(cc12)Oc1ccccc1O3	89.3 µM (inactive)	54.6 µM (inactive)	> 100 µM (inactive)	44.9 µM (inactive)	> 100 µM (inactive)	38.3 µM (inactive)		> 100 µM (inactive)	> 100 µM (inactive)	> 10 µM (inactive)	> 10 µM (inactive)	> 100 µM (inactive)	42.7 µM (inactive)		> 100 µM (inactive)	> 100 µM (inactive)	> 10 µM (inactive)
Nc1ccc(CCN2CCN(c3cccc(C(F)(F)F)c3)CC2)cc1	> 100 µM (inactive)	> 100 µM (inactive)		> 100 µM (inactive)	> 100 µM (inactive)	> 100 µM (inactive)	14.3 µM (inactive)	> 100 µM (inactive)	> 100 µM (inactive)	55.5 µM (inactive)	5.07 µM (inactive)	> 100 µM (inactive)	> 100 µM (inactive)	> 100 µM (inactive)	91.4 µM (inactive)	> 100 µM (inactive)	17.3 µM (inactive)
CCC1CC(C)=CCN1S(=O)(=O)c1ccc(C)cc1 (configuration not stated)		15.9 µM (inactive)	11 µM (inactive)	9.82 µM (inactive)	17.3 µM (inactive)	15.9 µM (inactive)	16.6 µM (inactive)		15.5 µM (inactive)	31.8 µM (inactive)	4.9 µM (inactive)		36.5 µM (inactive)	6.9 µM (inactive)	17.4 µM (inactive)	21.3 µM (inactive)	
S=C(N/N=C/c1ccccc1)NC1CC(c2ccccc2)Oc2ccccc21 (configuration not stated)	25.8 µM (inactive)	> 100 µM (inactive)	> 100 µM (inactive)	72.1 µM (inactive)	68.1 µM (inactive)	51.4 µM (inactive)	> 100 µM (inactive)	> 10 µM (inactive)	48.8 µM (inactive)	18.8 µM (inactive)	> 10 µM (inactive)	> 100 µM (inactive)	48 µM (inactive)	28.4 µM (inactive)	8.95 µM (inactive)		> 100 µM (inactive)
Cc1cc2c(C)n(Cc3ccc(Cl)cc3Cl)nc2c(C(=O)O)c1C	> 100 µM (inactive)	> 100 µM (inactive)	> 100 µM (inactive)	> 100 µM (inactive)	> 100 µM (inactive)	> 100 µM (inactive)		> 100 µM (inactive)	96.8 µM (inactive)	> 100 µM (inactive)	> 100 µM (inactive)	> 100 µM (inactive)	> 100 µM (inactive)		> 100 µM (inactive)	> 100 µM (inactive)	> 100 µM (inactive)
COc1ccc(/C=N/N=C(\N)NO)c(OC)c1C	19.5 µM (inactive)	4.81 µM (inactive)	22.3 µM (inactive)	24.5 µM (inactive)	16.3 µM (inactive)	15.4 µM (inactive)	12.5 µM (inactive)		16.3 µM (inactive)	4.56 µM (inactive)	29.9 µM (inactive)	56.4 µM (inactive)	20.2 µM (inactive)	8.49 µM (inactive)	7.96 µM (inactive)	7.19 µM (inactive)	7.08 µM (inactive)
COc1ccc(NC(=O)C2=CC(=O)c3ccc(O)cc3C2=O)c(OC)c1	> 100 µM (inactive)	> 100 µM (inactive)		> 100 µM (inactive)	> 100 µM (inactive)	> 100 µM (inactive)		> 100 µM (inactive)	> 100 µM (inactive)	> 100 µM (inactive)	> 100 µM (inactive)	> 100 µM (inactive)	> 100 µM (inactive)	> 100 µM (inactive)	> 100 µM (inactive)	> 100 µM (inactive)	> 100 µM (inactive)
C1=CC2SSSC2C1 (configuration not stated)	> 100 µM (inactive)	> 100 µM (inactive)	> 100 µM (inactive)	> 100 µM (inactive)	> 100 µM (inactive)	> 100 µM (inactive)	> 100 µM (inactive)	> 100 µM (inactive)	> 100 µM (inactive)	> 100 µM (inactive)	> 100 µM (inactive)	> 100 µM (inactive)	> 100 µM (inactive)		> 100 µM (inactive)	> 100 µM (inactive)	> 100 µM (inactive)
CC(=O)NC(CCCNC(=O)N(CCCl)N=O)C(=O)NCc1ccccc1 (configuration not stated)	> 100 µM (inactive)		> 100 µM (inactive)	> 100 µM (inactive)	> 100 µM (inactive)	6.53 µM (inactive)	> 100 µM (inactive)	> 100 µM (inactive)	> 100 µM (inactive)	> 100 µM (inactive)	46.3 µM (inactive)	59.7 µM (inactive)	> 100 µM (inactive)	> 100 µM (inactive)	> 100 µM (inactive)	40 µM (inactive)	> 100 µM (inactive)
CSc1nc2c(c(O)c(C)c(=O)n2C2OCC(OC(C)=O)C(OC(C)=O)C2OC(C)=O)c(=O)n1C (configuration not stated)	> 100 µM (inactive)	> 100 µM (inactive)	> 100 µM (inactive)	> 100 µM (inactive)	> 100 µM (inactive)	> 100 µM (inactive)	> 100 µM (inactive)	> 100 µM (inactive)	> 100 µM (inactive)		> 100 µM (inactive)	> 100 µM (inactive)	> 100 µM (inactive)	> 100 µM (inactive)	> 100 µM (inactive)	> 100 µM (inactive)	
COc1cc(CC2c3cc(OC)c(OC)cc3CCN2C)c(C(=O)O)cc1OC (configuration not stated)	> 100 µM (inactive)	> 100 µM (inactive)	> 100 µM (inactive)	> 100 µM (inactive)	> 100 µM (inactive)	> 100 µM (inactive)	> 100 µM (inactive)	> 100 µM (inactive)	> 100 µM (inactive)	> 100 µM (inactive)	> 100 µM (inactive)		> 100 µM (inactive)		> 100 µM (inactive)	> 100 µM (inactive)	> 100 µM (inactive)
C/C=C1\CCC2c3[nH]c4ccccc4c3CCN2C1 (configuration not stated)	77.4 µM (inactive)		> 100 µM (inactive)	56 µM (inactive)	0.174 µM (active)	> 100 µM (inactive)	83.8 µM (inactive)	> 100 µM (inactive)	> 100 µM (inactive)	> 100 µM (inactive)	> 100 µM (inactive)	> 100 µM (inactive)	> 100 µM (inactive)	> 100 µM (inactive)	35.8 µM (inactive)	> 100 µM (inactive)	
CCOC(=O)/C(O)=C(/C(=O)OC)c1ccc(Cl)cc1	> 100 µM (inactive)	> 100 µM (inactive)	> 100 µM (inactive)		> 100 µM (inactive)	> 100 µM (inactive)		> 100 µM (inactive)	> 100 µM (inactive)	> 100 µM (inactive)	> 100 µM (inactive)	> 100 µM (inactive)	> 100 µM (inactive)	> 100 µM (inactive)	> 100 µM (inactive)	> 100 µM (inactive)	> 100 µM (inactive)
